According to the SangsterLogP compilation:

conditions: pH 2.0

logD | Structure (SMILES)
2.18 | Cc1cc(C)n2nc(S[C@@H](C)C(=O)NCC(=O)Nc3ccc(F)c(F)c3F)nc2n1
0.51 | O=C1[C@@H]2[C@@H]3[C@H]4C[C@H]5[C@@H]3[C@@H]2C2(OCCO2)[C@H]5[C@@H]14
3.17 | CCOC(=O)/C=c1/s/c(=C/c2c(F)cccc2F)c(=O)n1CC(=O)N(C)C
4.67 | O=C(/C=C/c1cccs1)Nc1ccc(I)cc1
3.79 | O=C(/C=C/c1ccco1)Nc1ccccc1NC(=O)/C=C/c1ccco1
5.08 | O=C(COC(=O)/C=C/c1ccc(F)cc1)Nc1cc(C(F)(F)F)ccc1N1CCOCC1
3.56 | COC(=O)C(=O)C1=C(c2ccc(Cl)cc2)NC(=O)N[C@@H]1c1ccc(Cl)cc1

same assay, conditions: pH 5.0

Structure (SMILES) | logD
COc1ccc(C(=O)/C=C/Nc2ccc(Cl)c(C(F)(F)F)c2)cc1OC | 5.31
COc1ccc([C@@H]2[C@@H]3CCCC=C3C(C#N)=C(N)C2(C#N)C#N)cc1COCC(F)(F)F | 5.5
COc1ccc2c(c1)O[C@](O)(C(F)(F)F)CC2=O | 2.79
CC(=O)c1ccc(NC(=O)CNC(=O)CNC(=O)[C@@H]2O[C@@H]3OC(C)(C)O[C@@H]3[C@H]3OC(C)(C)O[C@H]32)cc1 | 3.39
CCOc1ccc(C[C@H]2c3cc(OCC)c(OCC)cc3CCN2C(=O)c2scnc2C)cc1OCC | 4.98
O=C(/C=C/Nc1cccc(C(F)(F)F)c1)c1ccc(Br)cc1 | 5.65
Cc1ccc(-c2nc3n(n2)C(=O)C[C@H](c2cccc([N+](=O)[O-])c2)S3)cc1 | 4.49
CCOC(=O)C1=C(C)NC(=S)N[C@@H]1c1ccc(OCc2ccc(Cl)cc2)c(OCC)c1 | 5.31
COc1ccc([C@H]2[C@H](C(=O)Nc3ccc(F)cc3F)c3cc(OC)c(OC)cc3C(=O)N2C)cc1OC | 3.66
O=C1C[C@@H](c2c(F)cccc2Cl)c2cc3c(cc2N1)OCCO3 | 3.96
Cc1ccc([C@@H](O)P(=O)(OCC(C)C)OCC(C)C)cc1 | 4.44
CCOC(=O)c1[nH]c(C)c(C(=O)OCC(=O)N(C)[C@@H]2CCS(=O)(=O)C2)c1C | 3.35
Cc1c(Nc2nc3ccccc3nc2Nc2cccc(Cl)c2)c(=O)n(-c2ccccc2)n1C | 5.96
CC(C)CN1C(=O)/C(=C/[C@@H]2CC=CCC2)SC1=S | 6.66
C[C@@]1(c2ccc(Cl)cc2)NC(=S)N2[C@@H]1NC(=S)N2c1ccc(Cl)cc1 | 4.94
CC(=O)Oc1ccc(C(=O)Nc2cccc(C(=O)c3cccc(NC(=O)c4ccc(OC(C)=O)cc4)c3)c2)cc1 | 5.34
COCCCNC(=S)N1[C@H](C)CCC[C@H]1C | 2.8

Results, then the compound that gave them:

logD | Structure (SMILES)
5.68 | COc1cc(/C=N\n2cnc3sc4c(c3c2=O)CCCC4)ccc1OCc1ccccc1
4.03 | O=C1c2ccccc2C(=O)N1/N=C/c1cc([N+](=O)[O-])ccc1Cl
3.33 | O=C(NC[C@H]1CCCO1)c1cc2nc(C3CC3)cc(C(F)(F)F)n2n1
3.62 | CCCCN1C(=O)c2ccc(C(=O)OCC(=O)N[C@H](C)C(C)C)cc2C1=O
4.5 | N#CC1=C(N)C(C#N)(C#N)[C@@H](c2ccccc2Cl)[C@@H]2CSCC=C12
3.28 | O=C(Nc1ccc2c(c1)OCO2)[C@@H]1COc2ccccc2O1
3.64 | CC(=O)Nc1ccc(/N=C/c2c(O)oc3ccccc3c2=O)cc1
4.74 | CC(=O)C12c3ccccc3C(c3ccccc31)[C@H]1C(=O)N(c3ccc(C)c([N+](=O)[O-])c3)C(=O)[C@@H]12
3.48 | C[C@H](C(=O)NC1CCCC1)N(c1ccc(Cl)cc1)S(C)(=O)=O
3.74 | CCOC(=O)N1CCN(C(=O)c2ccc(N3C(=O)[C@H]4CCCC[C@@H]4C3=O)cc2)CC1
5.87 | O=C1/C(=C/c2c(Sc3ccccc3)nc3ccccn3c2=O)SC(=S)N1C[C@H]1CCCO1
5.55 | CCC(=O)N1c2ccccc2NC2=C(C(=O)CC(C)(C)C2)[C@H]1c1ccc(-c2ccc([N+](=O)[O-])cc2Cl)o1
4.92 | CC1CCN(S(=O)(=O)N2CCC(C(=O)N[C@@H](C)c3ccccc3)CC2)CC1
5.45 | Cc1cc(Cl)ccc1O[C@@H](C)C(=O)NC1CCCCCC1
4.01 | Cc1ccc(CNC(=O)C2CCN(S(=O)(=O)c3ccc4c(c3)OCCCO4)CC2)cc1
6.27 | COc1ccccc1NC(=O)C1=C(C)NC(SCC(=O)Nc2ccc(C)c(Cl)c2)=C(C#N)[C@@H]1c1ccco1
5.92 | O=C(Nc1cccc(Cl)c1)c1cc2n(n1)[C@H](C(F)(F)F)C[C@@H](c1ccccc1)N2
4.43 | O=C(Cc1coc2cc3c(cc12)CCC3)O[C@H]1CCCCC1=O
3.56 | O=C(NC[C@@H]1CCCO1)c1sc2ccccc2c1Cl
4.55 | CCCN(CCC)S(=O)(=O)c1ccc(C(=O)N2CC[C@@H]3c4ccccc4C(=O)N3C2)cc1
5.87 | CC(C)[C@H]1O[C@H]2CCCC[C@H]2C2=CCCC[C@H]21
4.91 | CS(=O)(=O)N(CC(=O)N1CCc2ccccc2C1)c1ccc(OCc2ccccc2)cc1
3.08 | Cc1c(Cl)c(C(F)(F)F)nn1[C@@H](C)C(=O)N1CCOCC1
4.5 | O=C(Nc1ccc(C(F)(F)F)cc1)[C@H]1CCc2ccccc2O1
4.18 | COc1ccc(C(=O)OCC(=O)c2cc(C)n(C[C@@H]3CCCO3)c2C)c(OC)c1
4.49 | CCN(CC)S(=O)(=O)c1ccc2nnn(OCC(=O)NC(c3ccccc3)c3ccccc3)c2c1
4.17 | COc1ccccc1[C@@H]1CC(=O)Nc2cc(C)c(C)cc21
4.62 | COc1ccc([C@@H]2C3=C(C[C@H](c4ccco4)CC3=O)Nc3ccccc3N2C(=O)C(F)(F)F)cc1
5.63 | Cc1ccccc1N[C@@H](c1ccccc1F)P(=O)(OC(C)C)OC(C)C

same assay, conditions: pH 6.0

logD | Structure (SMILES)
3.37 | CC1=C(C(=O)N2CCCCC2)C(c2cccs2)C2=C(O)CCCC2=N1 (configuration not stated)

same assay, conditions: pH 6.5

Structure (SMILES) | logD
CCCCNC(=S)N(C)/N=C/c1ccc(OCc2ccc(Cl)cc2)c(OC)c1 | 6.8
C=CCOc1cccc([C@@H]2c3c(oc4ccccc4c3=O)C(=O)N2c2nnc(C)s2)c1 | 4.52

Further lines, results first:

logD | Structure (SMILES)
5.07 | CC/C(=N\N=C1/S[C@@H](C)C(=O)N1Cc1ccco1)c1ccccc1
6.26 | Cc1ccc(CN2C(=O)/C(=C/[C@@H]3CC=CCC3)SC2=S)cc1
3.24 | CCn1c(NC[C@@H](O)c2ccccc2)nc2c1c(=O)n(C)c(=O)n2C
5.79 | COC(=O)c1ccc(C(=O)OC)c(NC(=O)CSc2ncnc3sc4c(c23)CC[C@@H](C)C4)c1
4.91 | CCN(C(=O)CN1C(=O)[C@H]2CCCC[C@H]2C1=O)c1nnc(-c2ccc(Cl)cc2)s1
4.3 | O=C(CN1N=N[C@@H]2C(=O)N(c3ccc(Cl)cc3Cl)C(=O)[C@@H]21)Nc1ccccc1
3.52 | O=C(CCCNC1=NS(=O)(=O)c2ccccc21)OCc1cc([N+](=O)[O-])cc2c1OCOC2

same assay, conditions: pH 7.3

Structure (SMILES) | logD
Cc1cc(C)nc(-n2nc(C)c3c2NC2=CC(C)(C)CC(=O)[C@H]2[C@@H]3c2ccco2)n1 | 4.34
CCOP(=O)(Cc1ccc(CP(=O)(OCC)OCC)o1)OCC | 3.25
CC(C)[C@@H](Sc1nnc(C(F)(F)F)n1C)C(=O)NC(N)=O | 2.12

Second part, the compound after the results:

logD | Structure (SMILES)
6.01 | CC1(C)[C@@]2(C)CC[C@]1(C(=O)Nc1ccccc1C(F)(F)F)c1nc3ccccc3nc12
4.36 | CCCn1c2ccccc2c2nnc(SCC(=O)N[C@H](C)c3ccccc3)nc21
5.48 | CC1=NC2=C(C(=O)CCC2)[C@H](c2ccc(Cl)cc2)C1C(=O)OCCc1ccccc1 (some centres not stated)

same assay, conditions: pH 8.0

logD | Structure (SMILES)
4.37 | CC(=O)N(c1ccccc1)c1nc(/C=C/C(=O)Nc2ccc3c(c2)OCO3)cs1
4.96 | CC[C@H]1CS/C(=N\c2cccc(C)c2)N1C(=O)CCN1C(=O)c2ccccc2C1=O
3.9 | OC[C@H]1CCCN(c2ncnc3scc(-c4ccccc4)c23)C1
4.48 | CCc1cccc(C)c1N(C(=O)Cn1c([C@@H](C)O)nc2ccccc21)[C@@H](C)COC

same assay, conditions: pH 10.0

Structure (SMILES) | logD
CCCC[C@@]1(c2ccccc2)NC(=S)N(c2ccc(C)cc2)N1 | 5.1
C(=N\n1cnnc1)/c1ccc(-n2nc(-c3ccccc3)cc2-c2ccccc2)cc1 | 5.58
Cc1nn(C)cc1-c1cc(C(F)(F)F)n2nc(C(=O)N3C[C@@H](C)O[C@@H](C)C3)cc2n1 | 4.11

Next, values leading:

logD | Structure (SMILES)
4.66 | COc1ccc2c(c1)C(=O)N(Cc1ccco1)C(=O)/C2=C\Nc1c(C)n(C)n(-c2ccccc2)c1=O
3.95 | CC[C@@H](SC1=Nc2ccccc2C2=N[C@@H](Cc3ccccc3)C(=O)N12)C(=O)N1CCOCC1
3.68 | C[C@H]1C[C@H](C)CN(C(=O)CSc2nnc(-c3ccccc3)n2C)C1
4.55 | CCC[C@@H](C)NC(=O)COc1ncnc2sc3c(c12)CC[C@@H](C)C3
5.16 | CCOC(=O)c1c(CC(C)C)csc1/N=C/c1c(C)nn(-c2ccccc2)c1O
4.75 | CCc1ccc([C@@H]2C(C(=O)OC(C)C)=C(C)N=C3SCCC(=O)N32)cc1
3.68 | NC(=O)c1cc(N2C(=O)[C@H]3CC=CC[C@@H]3C2=O)ccc1N1CCCCC1

same assay, conditions: pH 10.5

Structure (SMILES) | logD
C=CCn1c(SCC(=O)N2C[C@@]3(C)C[C@@H]2CC(C)(C)C3)nc2sc(CC)cc2c1=O | 6.04
CC1(C)CC(=O)C2=C(C1)OC(N)=C(C#N)[C@H]2c1c2ccccc2cc2ccccc12 | 4.99
COc1ccc(N2C(=O)C[C@@H](Sc3nc(C)cc(C)n3)C2=O)cc1OC | 2.95
Cc1cc2c(c(=O)o1)[C@@H](c1cccc(F)c1F)C(C#N)=C(N)O2 | 3.1
Clc1ccc(/C=N/NC2=Cn3c(nc4ccccc43)NN2)cc1 | 4.81
CCCc1[nH]nc2c1[C@H](c1ccsc1C)C(C#N)=C(N)O2 | 3.83
C/C(=C\c1ccco1)[C@H]1C(C#N)=C(N)Oc2n[nH]c(-c3ccccc3)c21 | 4.82
CC(C)=CCCC1=NN(C=O)[C@@](C)(CCC=C(C)C)C1 | 5.02
COC(=O)c1c(C)sc2c1OC(N)=C(C#N)[C@@H]2c1cc(Br)cs1 | 5.06

The next lines start with the values.

logD | Structure (SMILES)
5.21 | Cn1c(N)c(C(=O)CSc2nc3sc4c(c3c(=O)n2Cc2ccccc2)CCC4)c(=O)n(C)c1=O
4.77 | CCOC(=O)C1=C(C)N=c2s/c(=C\c3ccc(OC(C)=O)cc3)c(=O)n2C1c1cccs1 (configuration not stated)
3.4 | CCN(C(=O)[C@@H](C)OC(=O)c1cc(OC)c(OC)c(OC)c1)c1ccccc1
3.14 | O=C(c1ccccc1)N1CCCC[C@@H](Sc2nnc3ccccn23)C1=O
4.73 | C[C@H](NC(=O)CSc1ncnc2c1cnn2-c1ccccc1)c1ccccc1
